Data from BigSolDB 2.1.

C=C1CC[C@H](O)C/C1=C/C=C1\CCC[C@]2(C)[C@@H]([C@H](C)CCCC(C)C)CC[C@@H]12
solubility (mole fraction)
Conditions	in DMSO	in ethanol	in ethyl acetate	in ethylene glycol	in isopropanol	in n-butanol	in propylene glycol	in sec-butanol	in transcutol	in water
273.2 K	0.0041	0.136	0.0904	0.000113	0.19	0.151	0.00142	0.154	0.369	1.87e-07
278.2 K	0.00469	0.144	0.109	0.000161	0.202	0.157	0.00176	0.161	0.375	2.9e-07
283.2 K	0.00533	0.153	0.131	0.000234	0.215	0.163	0.00209	0.168	0.382	4.22e-07
288.2 K	0.00601	0.162	0.15	0.000318	0.225	0.169	0.00249	0.176	0.39	5.67e-07
298.2 K	0.00723	0.177	0.195	0.000524	0.245	0.169	0.00337	0.187	0.403	1.03e-06

Conditions	solubility (mole fraction)
in PEG-400, 273.2 K	0.0135
in PEG-400, 278.2 K	0.0162
in PEG-400, 283.2 K	0.0191
in PEG-400, 288.2 K	0.0222
in PEG-400, 298.2 K	0.0291
